According to publication PMC9014415, “Repositioning of a Diaminothiazole Series Confirmed to Target the Cyclin-Dependent Kinase CRK12 for Use in the Treatment of African Animal Trypanosomiasis” (Journal of Medicinal Chemistry, 2022):

Assays:
Experiment in all cases: SILAC pull-down with resin-bound 13, competition by compound 2
Type in all cases: binding, Trypanosoma brucei
Conditions in all cases: procyclic lysate; compound 2 10 μM vs DMSO; mean of three experiments
[1] = test system: MAP kinase 9, putative (MAPK9)
Method: (§1) Chemical proteomic studies were carried out by immobilizing an analogue of compound 2 (probe 13; Figure 3A and Scheme 4) to magnetic beads via a polyethyleneglycol (PEG) linker. Appropriate attachment sites for the PEG linker were informed by the established structure–activity relationships within this series, and an advanced intermediate toward the final derivatized compound was screened against both bloodstream and procyclic forms of T. brucei to ensure that it retained potency. The analogue was immobilized by attachment to NHS-ester-activated paramagnetic beads. Activated beads were then incubated in SILAC (stable isotope labeling by amino acids in cell culture)-labeled T. brucei procyclic whole-cell lysates in the presence or absence of compound 2 (10 μM) with either “light-“ or “heavy”-labeled lysate. After combining the eluates from the beads and performing proteomic analyses, proteins that bound specifically to the diaminothiazole pharmacophore were distinguished from proteins that bound non-specifically to the beads by virtue of compound 2:DMSO tryptic peptide isotope ratios. As a result of these studies, four kinases and a cyclin were identified as specific binders of the compound 2-derivatized beads (Figure 3B and Table S11). It should be noted that of the four kinases identified, only CRK12 has been established as essential for survival of T. brucei.[14] […]
(§2) Trypanosoma brucei procyclic form parasites were grown in SDM-79 media (SILAC SDM-79, 2 g/L NaHCO3, 7.5 mg haemin, 1% glutamax and 15% dialysed FBS) with either light or heavy isotopes for 6-9 divisions (6 days) to a density of ~3 x 10^7 cells/ml. A total of 3 x10^8 cells were washed thrice with PBS. Buffer 1 (0.1 mM tosyl phenylalanyl chloromethyl ketone, 1 µg/ml leupeptin, 1 mM aprotinin, 1 mM phenylmethylsulfonyl fluoride, 1x Roche Complete protease inhibitors) was added to the parasite pellet, followed by Buffer 2 (100 mM Tris pH 7.5, 10% glycerol, 300 mM NaCl, 3 mM MgCl2, 1.6% IGEPAL® CA-630, 2 mM dithiothreitol) and incubated at 4 °C for 20 min. Lysates were centrifuged at 100,000 g at 4 °C for 1 h. Beads (blank and compound-bound) were washed twice with water and twice with lysis buffer (Buffer 1 and 2). Lysates were incubated with 2 mg blank beads for 30 min at 4 °C. Lysates were then incubated with either 10 µM DDD00770675 or 1% DMSO for 30 min at 4 °C. Finally, lysates were incubated with 2 mg of bound compound for 1 h at 4 °C. Beads were washed three times with wash buffer (0.5% IGEPAL® CA-630, 50 mM Tris pH 8.0, 5 mM EDTA, 1 mg/ml BSA) and twice with Tris-buffered saline. Samples were combined, run 1.5 cm into a Brs-TRIS 10% acrylamide gel and stained with Coomassie quick reagent for 1 h. Gel bands were subjected to in-gel reduction with 10 mM dithiothreitol, alkylation with 50 mM iodoacetamide and digestion with 12.5 μg/mL trypsin (Pierce) for >16h at 37°C. Recovered tryptic peptides were vacuum […]
(§3) 4.5 Peptide fractionation and LC-MS/MS analysis
(§4) Peptides were fractionated using High pH RP Chromatography. A C18 Column from Waters (XBridge peptide BEH, 130Å, 3.5 µm 2.1 x 150 mm, Waters, Ireland) with a guard column (XBridge, C18, 3.5 µm, 2.1 ×10 mm, Waters) were used on a Ultimate 3000 HPLC (Thermo-Scientific). Buffers A and B used for fractionation consist, respectively, of (A) 10mM ammonium formate in milliQ water pH 9.5 and (B) 10 mM ammonium formate, pH 9.5 in 90% acetonitrile. Fractions were collected using a WPS-3000FC auto-sampler (Thermo-Scientific) at 1 min intervals. Column and guard column were equilibrated with 2% Buffer B for twenty minutes at a constant flow rate of 0.2 mL/min. Peptides (190 µL) were injected onto the column, and the separation gradient was started 1 min after sample was loaded onto the column. Peptides were eluted from the column with a gradient of 2% Buffer B to 60% Buffer B in 53 min. The column was washed for 15 min in 100% Buffer B and equilibrated at […]
(§5) 2% Buffer B for 20 min. […]

Cyclin 9 (CYC9) = test system: Cyclin 9 (CYC9)
Method: as §1, §2, §3, §4, §5

[2] = test system: Cdc-2 related kinase 11 (CRK11)
Method: as §1, §2, §3, §4, §5

[3] = test system: Inositol polyphosphate kinase-like protein (IPPK)
Method: as §1, §2, §3, §4, §5

MAP kinase 6 (MAPK6) = test system: MAP kinase 6 (MAPK6)
Method: as §1, §2, §3, §4, §5

[4] = test system: Cdc2-related kinase 12 (CRK12)
Method: as §1, §2, §3, §4, §5

MAP kinase 4 (MAPK4) = test system: MAP kinase 4 (MAPK4)
Method: as §1, §2, §3, §4, §5

CC(C)CS(=O)(=O)N[C@H]1CC[C@H](Nc2nc(N)c(C(=O)c3c(F)cc(CN(C)C)cc3F)s2)CC1 [Compound 2, N-(trans)-[4-[[4-Amino-5-[4-(dimethylaminomethyl)-2,6-difluoro-benzoyl]thiazol-2-yl]amino]cyclohexyl]-2-methyl-propane-1-sulfonamide] was tested, and the “Log2 ratio DMSO/compound” value [1] was 4.15, the “Log2 ratio DMSO/compound” value (Cyclin 9 (CYC9)) was 3.16 and the “Log2 ratio DMSO/compound” value [2] was 3.57. The “Log2 ratio DMSO/compound” value [3] was 1.85, the “Log2 ratio DMSO/compound” value (MAP kinase 6 (MAPK6)) was 1.62 and the “Log2 ratio DMSO/compound” value [4] was 3.47. For the same molecule, the “Log2 ratio DMSO/compound” value (MAP kinase 4 (MAPK4)) was 2.84.
